Laboratory results: patent US20230234967A1, “Fused Azole Heterocycles as AHR Antagonists” (Senda Biosciences, Inc., priority 2021, published 2023)

Tested on: not listed separately
Experiment: Solubility Determination Assay (PBS pH 1.6 and pH 7.4)
Format: physicochemical
Details: PBS buffer, aqueous buffer, kinetic from dmso stock; PBS pH 1.6, 25° C., 2 hours shaking; read-out: Aq. Solubility at pH = 1.6
Method: Example 31: Solubility Determination Assay
The stock solutions of test compounds and control compound progesterone were prepared in DMSO at the concentrations of 10 mM. 15 μL of stock solution (10 mM) of each sample was placed in order into their proper 96-well rack. 485 μL of PBS pH 1.6 and pH 7.4 were added into each vial of the cap-less Solubility Sample plate. The assay was performed in singlet. One stir stick was added to each vial and then the vial was sealed using a molded PTFE/Silicone plug. The solubility sample plates were then transferred to the Eppendorf Thermomixer Comfort plate shaker and shaken at 25° C. at 1100 rpm for 2 hours. After completion of the 2 hours, plugs were removed and the stir sticks were removed using a big magnet. The samples from the Solubility Sample plate were transferred into the filter plate. Using the Vacuum Manifold, all the samples were filtered. An aliquot of 5 μL was taken from the filtrate followed by addition of 495 μL of a mixture of H2O and acetonitrile containing internal standard (1:1). A certain proportion of ultrapure water was used to dilute the diluent according to the peak shape. The dilution factor was changed according to the solubility values and the LC-MS signal response.
From the 10 mM DMSO STD plate, 6 μL was transferred into the remaining empty plate, and then 194 μL of DMSO were added to that plate to have a STD concentration of 300 μM. From the 300 μM DMSO STD plate, 5 μL were transferred into the remaining empty plate, and then 495 μL of a mixture of H2O and acetonitrile containing internal standard (1:1) were added to that plate to have a final STD concentration of 3 μM. A certain proportion of ultrapure water was used to dilute the diluent according to the peak shape. The concentrations of the standard samples were changed according to the LC-MS signal response.
The plate was placed into the well plate autosampler. The samples were evaluated by LC-MS/MS analysis.
All calculations were carried out using Microsoft Excel.
The filtrate was analyzed and quantified against a standard of known concentration using LC coupled with mass spectral peak identification and quantitation. Solubility values of the test compound and control compound were calculated as follows: […]
Any value of the compounds that was not within the specified limits was rejected and the experiment was repeated.
“+++” indicates a solubility value equal to or greater than […] “++” indicates a solubility value between 0.1 and 1 μM and “+” indicates a solubility value less than 0.1 μM.

With `Cc1ccccc1-c1cc2ncc(NC(=O)c3ccnn3C)cc2[nH]1` [Product 49, 1-methyl-N-(2-(o-tolyl)-1H-pyrrolo[3,2-b]pyridin-6-yl)-1H-pyrazole-5-carboxamide] as the molecule, how does the solubility at 2 h read?
Its solubility at 2 h is no less than 1 µM.

Same assay, conditions: PBS buffer, aqueous buffer, kinetic from dmso stock; PBS pH 7.4, 25° C., 2 hours shaking; read-out: Aq. Solubility at pH = 7.4

For `Cc1ccccc1-c1cc2ncc(NC(=O)c3ccnn3C)cc2[nH]1` [Product 49, 1-methyl-N-(2-(o-tolyl)-1H-pyrrolo[3,2-b]pyridin-6-yl)-1H-pyrazole-5-carboxamide], which solubility at 2 h is on record?
Its solubility at 2 h is no less than 1 µM.

Biological target: T1, AHR (Homo sapiens, UniProt P35869)
T1 construct: other cell line with a DRE-luciferase reporter stably transfected; endogenous in cells; host or cells: Human HepG2 liver carcinoma AhR-Lucia reporter cells
T1 sequence (P35869 11-848): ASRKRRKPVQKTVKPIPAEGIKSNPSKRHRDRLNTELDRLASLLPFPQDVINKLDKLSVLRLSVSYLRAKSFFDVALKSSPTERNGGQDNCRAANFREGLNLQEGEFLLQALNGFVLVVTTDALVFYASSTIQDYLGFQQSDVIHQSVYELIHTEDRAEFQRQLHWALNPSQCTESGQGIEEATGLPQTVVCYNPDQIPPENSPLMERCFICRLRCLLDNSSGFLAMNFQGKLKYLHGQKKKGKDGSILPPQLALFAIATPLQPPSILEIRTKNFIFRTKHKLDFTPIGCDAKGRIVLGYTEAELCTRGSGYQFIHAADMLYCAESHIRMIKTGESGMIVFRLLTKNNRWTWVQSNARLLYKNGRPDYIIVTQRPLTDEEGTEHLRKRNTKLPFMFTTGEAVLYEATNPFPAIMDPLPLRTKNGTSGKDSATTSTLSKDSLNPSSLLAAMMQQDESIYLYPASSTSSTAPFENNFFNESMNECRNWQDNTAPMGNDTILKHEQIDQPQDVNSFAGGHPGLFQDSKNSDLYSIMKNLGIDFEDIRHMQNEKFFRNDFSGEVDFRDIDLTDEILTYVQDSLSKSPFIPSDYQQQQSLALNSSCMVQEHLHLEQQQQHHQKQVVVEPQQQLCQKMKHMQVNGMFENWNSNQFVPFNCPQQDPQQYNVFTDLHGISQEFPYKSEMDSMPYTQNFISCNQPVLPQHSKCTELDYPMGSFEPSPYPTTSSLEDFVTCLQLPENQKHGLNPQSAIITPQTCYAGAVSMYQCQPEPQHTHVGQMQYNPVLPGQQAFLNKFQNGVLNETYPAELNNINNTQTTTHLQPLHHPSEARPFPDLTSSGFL
Experiment: DRE-Luciferase Reporter Assay (HepG2 AhR-Lucia reporter cells)
Format: cell-based
Details: AHR activating ligand at its EC50, luciferase read-out, read-out: HEPG2 Luc IC50
Text: Example 27: DRE-Luciferase Reporter Assay
AHR binds to Dioxin Responsive Elements (DRE) upstream of genes that it activates. One measure of AHR activity is activation of a reporter gene, such as luciferase, downstream of one or multiple DRE elements. Luciferase activity will reflect activation and inhibition of AHR in the cells expressing his reporter. 20000 Human HepG2 liver carcinoma—AhR-Lucia reporter cells or Human HT29 colon adenocarcinoma—AhR reporter cells or other cell line with a DRE-luciferase reporter stably transfected were plated in Eagle's Minimal Essential Medium, 10% heat-inactivated FBS, 1×non-essential amino acids Pen-Strep (10,000 U/mL) and Normocin (100 ug/mL) in plates (96-well, 384-well or other plates) and incubated overnight at 37° C. in a CO2 incubator and treated with and without AhR antagonists at a log dilution starting at 100 uM.
After 1 hr that cells were plated an AHR activating ligand, such as TCDD, kynurenine, ITE (2-(1H-indole-3-ylcarbonyl)-4-thiazolecarboxylic methyl ester), VAF347, BNF (beta-naphthoflavone), FICZ (6-formylindolo(3,2-b) carbazole) or other AHR ligands at their specific EC50 concentration, were added to the cells with or without AHR antagonist.
Cells were incubated for 24 or 48 hours or another time point and then, supernatant was analyzed for determination of luciferase activity as a read-out of the AHR activation or inhibition. Luciferase was measured with the commercial kit QUANTI-Luc™ assay solution kit from Invivogen following the manufacturer's instructions.
The level of luciferase with only agonist ligand added was the maximum signal while the luciferase with […] was the minimum signal. IC50 values were determined as the concentration which inhibits half of the luciferase activity. “A” indicates an IC50 value less than 100 nM, “B” indicates an IC50 between 100 and 500 nM, “C” indicates an IC50 above 500 nM.

With `Cn1cc(-c2ccc3nc(NC(=O)c4ccnn4C)sc3n2)cn1` [Product 22, 1-Methyl-N-(5-(1-methyl-1H-pyrazol-4-yl)thiazolo[5,4-b]pyridin-2-yl)-1H-pyrazole-5-carboxamide] as the molecule, how does the IC50 read?
The IC50 was 100 to 500 nM.

With `CC(=O)Nc1nc2ccc(-c3ccccc3N(C)C)nc2s1` [Product 23, N-(5-(2-(dimethylamino)phenyl)thiazolo[5,4-b]pyridin-2-yl)acetamide] as the molecule, how does the IC50 read?
Its IC50 is greater than 500 nM.

For `Cn1nccc1C(=O)Nc1nc2ccc(-c3ccccc3O)nc2s1` [Product 24, N-(5-(2-hydroxyphenyl)thiazolo[5,4-b]pyridin-2-yl)-1-methyl-1H-pyrazole-5-carboxamide], which IC50 is on record?
The IC50 was greater than 500 nM.

For `Cn1nccc1C(=O)Nc1nc2ccc(-c3cccnc3)nc2s1` [Product 26, 1-Methyl-N-(5-(pyridin-3-yl)thiazolo[5,4-b]pyridin-2-yl)-1H-pyrazole-5-carboxamide], which IC50 is on record?
The IC50 was 100 to 500 nM.

Which IC50 does the source give for `Cn1nccc1C(=O)Nc1nc2ccc(-c3ccccn3)nc2s1` [Product 27, 1-methyl-N-(5-(pyridin-2-yl)thiazolo[5,4-b]pyridin-2-yl)-1H-pyrazole-5-carboxamide] here?
The IC50 was 100 to 500 nM.

Which IC50 does the source give for `Cn1nccc1C(=O)Nc1nc2ccc(-c3nccs3)nc2s1` [Product 28, 1-Methyl-N-(5-(thiazol-2-yl)thiazolo[5,4-b]pyridin-2-yl)-1H-pyrazole-5-carboxamide] here?
The IC50 was greater than 500 nM.

With `Cc1nc(-c2ccc3nc(NC(=O)c4ccnn4C)sc3n2)sc1C` [Product 29, N-(5-(4,5-dimethylthiazol-2-yl)thiazolo[5,4-b]pyridin-2-yl)-1-methyl-1H-pyrazole-5-carboxamide] as the molecule, how does the IC50 read?
Its IC50 is 100 to 500 nM.

With `Cc1cnc(-c2ccc3nc(NC(=O)c4ccnn4C)sc3n2)s1` [Product 30, 1-Methyl-N-(5-(5-methylthiazol-2-yl)thiazolo[5,4-b]pyridin-2-yl)-1H-pyrazole-5-carboxamide] as the molecule, how does the IC50 read?
The IC50 was 100 to 500 nM.

With `Cc1ncsc1-c1ccc2nc(NC(=O)c3ccnn3C)sc2n1` [Product 31, 1-Methyl-N-(5-(4-methylthiazol-5-yl)thiazolo[5,4-b]pyridin-2-yl)-1H-pyrazole-5-carboxamide] as the molecule, how does the IC50 read?
The IC50 was 100 to 500 nM.

With `Cc1csc(-c2ccc3nc(NC(=O)c4ccnn4C)sc3n2)n1` [Product 32, 1-Methyl-N-(5-(4-methylthiazol-2-yl)thiazolo[5,4-b]pyridin-2-yl)-1H-pyrazole-5-carboxamide] as the molecule, how does the IC50 read?
Its IC50 is greater than 500 nM.

Which IC50 does the source give for `Cc1nc(C)c(-c2ccc3nc(NC(=O)c4ccnn4C)sc3n2)s1` [Product 33, N-(5-(2,4-dimethylthiazol-5-yl)thiazolo[5,4-b]pyridin-2-yl)-1-methyl-1H-pyrazole-5-carboxamide] here?
The IC50 was 100 to 500 nM.

For `CC(C)C(=O)Nc1ccccc1-c1ccc2nc(NC(=O)c3ccnn3C)sc2n1` [Product 34, N-(5-(2-isobutyramidophenyl)thiazolo[5,4-b]pyridin-2-yl)-1-methyl-1H-pyrazole-5-carboxamide], which IC50 is on record?
Its IC50 is greater than 500 nM.

Which IC50 does the source give for `CC(=O)Nc1ccccc1-c1ccc2nc(NC(=O)c3ccnn3C)sc2n1` [Product 35, N-(5-(2-acetamidophenyl)thiazolo[5,4-b]pyridin-2-yl)-1-methyl-1H-pyrazole-5-carboxamide] here?
Its IC50 is greater than 500 nM.

With `CC(=O)N(C)c1ccccc1-c1ccc2nc(NC(=O)c3ccnn3C)sc2n1` [Product 36, 1-methyl-N-(5-(2-(N-methylacetamido)phenyl)thiazolo[5,4-b]pyridin-2-yl)-1H-pyrazole-5-carboxamide] as the molecule, how does the IC50 read?
The IC50 was greater than 500 nM.

Which IC50 does the source give for `CN(CCO)c1ccccc1-c1ccc2nc(NC(=O)c3ccnn3C)sc2n1` [Product 37, N-(5-(2-((2-hydroxyethyl)(methyl)amino)phenyl)thiazolo[5,4-b]pyridin-2-yl)-1-methyl-1H-pyrazole-5-carboxamide] here?
Its IC50 is 100 to 500 nM.

With `Cc1ccccc1-c1ccc2nc(NC(=O)N3CCN(C)CC3)sc2n1` [Product 40, 4-methyl-N-(5-(o-tolyl)thiazolo[5,4-b]pyridin-2-yl)piperazine-1-carboxamide] as the molecule, how does the IC50 read?
The IC50 was greater than 500 nM.

Which IC50 does the source give for `Cc1ccccc1-c1ccc2sc(NC(=O)c3ccnn3C)nc2n1` [Product 41, 1-methyl-N-(5-(o-tolyl)thiazolo[4,5-b]pyridin-2-yl)-1H-pyrazole-5-carboxamide] here?
Its IC50 is greater than 500 nM.

Which IC50 does the source give for `Cc1ccccc1-c1cc2sc(NC(=O)c3ccnn3C)nc2cn1` [Product 42, 1-methyl-N-(6-(o-tolyl)thiazolo[4,5-c]pyridin-2-yl)-1H-pyrazole-5-carboxamide] here?
Its IC50 is greater than 500 nM.

For `Cc1ccccc1-c1ccc2nc(NC(=O)c3ccnn3C)oc2n1` [Product 43, 1-methyl-N-(5-(o-tolyl)oxazolo[5,4-b]pyridin-2-yl)-1H-pyrazole-5-carboxamide], which IC50 is on record?
The IC50 was greater than 500 nM.

Which IC50 does the source give for `Cn1nccc1C(=O)Nc1cnc2cc(-c3ccccc3C(F)(F)F)[nH]c2c1` [Product 44, 1-methyl-N-(2-(2-(trifluoromethyl)phenyl)-1H-pyrrolo[3,2-b]pyridin-6-yl)-1H-pyrazole-5-carboxamide] here?
The IC50 was 100 to 500 nM.

Which IC50 does the source give for `Cn1ncnc1C(=O)Nc1cnc2cc(-c3ccccc3C(F)(F)F)[nH]c2c1` [Product 45] here?
Its IC50 is less than 100 nM.

With `Cc1ccccc1-c1cc2ncc(NC(=O)c3ncnn3C)cc2[nH]1` [Product 46] as the molecule, how does the IC50 read?
The IC50 was 100 to 500 nM.

With `Cc1ccccc1-c1cc2cnc(NC(=O)c3ccnn3C)nc2[nH]1` [Product 48] as the molecule, how does the IC50 read?
Its IC50 is 100 to 500 nM.

Which IC50 does the source give for `Cc1ccccc1-c1cc2ncc(NC(=O)c3ccnn3C)cc2[nH]1` [Product 49, 1-methyl-N-(2-(o-tolyl)-1H-pyrrolo[3,2-b]pyridin-6-yl)-1H-pyrazole-5-carboxamide] here?
The IC50 was 100 to 500 nM.

For `Cc1ccccc1-c1cc2ncc(NC(=O)c3ccnn3C)nc2[nH]1` [Product 50, 1-methyl-N-(6-(o-tolyl)-5H-pyrrolo[2,3-b]pyrazin-3-yl)-1H-pyrazole-5-carboxamide], which IC50 is on record?
Its IC50 is greater than 500 nM.
